Results: patent US20260226105A1, “Antimicrobial And Antibiofilm Peptides Sequences With Metal-Binding Motifs” (The Trustee of the University of Pennsylvania, priority 2021, published 2026)
Values joined by “and” are separate entries in the source; they are usually repeats but may differ in a detail not shown here. Equal entries are not always repeated. Where two headings read alike, the source gives them in different places. Ends that are not written are not given here.

How the values were obtained:
[1] = system: K. pneumoniae (ATCC13883); conditions: agent alone, BM2 minimal medium
[2] = system: K. pneumoniae (KpC+ 1825971)
E. coli (ATCC 25922) [3] = system: E. coli (ATCC 25922)
[4] = system: E. coli (KpC+1812446) planktonic cells; conditions: Planktonic
[5] = system: K. pneumoniae (ATCC 13883); conditions: MH broth, 12 h, 37° C.
E. coli (ATCC 25922) [6] = conditions: agent alone, BM2 minimal medium
E. coli KpC+1812446 = format: in vivo, mice
Description: Male Balb/C (18-20 g) mice from the Biotério Central do Campus da USP in Ribeirão Preto, São Paulo, were kept in groups of 5 per cage at 22° C. with normal cycles of light and free access to food and water. The care and use of the animals were approved by the Ethics Committee of Universidade Católica Dom Bosco number 019/2016. We assessed the ability of the peptides to protect the mice from lethal systemic infections induced with E. coli KpC+1812446. The mice (n=40) were randomly placed into eight groups of five mice each, and each mouse was injected intraperitoneally with 200 μL of saline solution containing 2×10^7 CFU of E. coli KpC+1812446. Intraperitoneal treatment with 5 or 10 mg·Kg^−1 of each peptide was initiated after one hour of infection and repeated at 24 h intervals for seven days^61. Gentamicin at 10 mg·Kg^−1 of body weight and normal saline were used as positive and negative controls, respectively.

[7] = system: K. pneumoniae (KpC1825971); conditions: Table 3, agent alone
E. coli (KpC1812446) [8] = conditions: agent alone, BM2 minimal medium
[9] = system: K. pneumoniae (KpC1825971); conditions: agent alone, BM2 minimal medium
E. coli (ATCC25922) = conditions: Table 3, agent alone
[10] = system: E. coli (KpC+1812446) biofilm; conditions: Biofilm
[11] = system: P. aeruginosa (ATCC 27853); conditions: MH broth, 12 h, 37° C.
E. coli (KpC+ 1812446) = conditions: MH broth, 12 h, 37° C.
MRSA (3730529) = conditions: MH broth, 12 h, 37° C.
[12] = system: K. pneumoniae (ATCC13883); conditions: Table 3, agent alone
E. coli (KpC1812446) [13] = conditions: Table 3, agent alone
[14] = Cu(II) supplemented medium (0.25 μM)

Sequence: GGHKWKLFKKIGAVLKVL [GGH-CM15]
- MBIC [1]: >32 µM
- MIC in Cu(II) supplemented medium [2, 14]: 2 µM
- MIC ([2]; MH broth, 12 h, 37° C.): 2 µM
- MIC, TETA (E. coli MG1655; cell-impermeable Cu(II) chelator triethylenetetramine (TETA) 200 μM): 2 µM
- MIC, TTM (E. coli MG1655; cell-permeable Cu(II) chelator tetrathiolmolybdate (TTM) 200 μM): 32 µM
- MIC, No Chelator (E. coli MG1655; no chelator): 1 µM
- MIC in Cu(II) supplemented medium (E. coli (ATCC 25922) [3]; [14]): 2 µM
- MIC (E. coli (ATCC 25922) [3]; MH broth, 12 h, 37° C.): 2 µM
- MIC in Cu(II) supplemented medium (E. coli (KpC+ 2101123); [14]): 2 µM
- MIC (E. coli (KpC+ 2101123); MH broth, 12 h, 37° C.): 2 µM
- MIC in Cu(II) supplemented medium (S. aureus (ATCC 25923); [14]): 1 µM
- MIC (S. aureus (ATCC 25923); MH broth, 12 h, 37° C.): 1 µM
- FICI ([4]; peptide + AmP): 1.52 and 1.5
- FICI ([4]; peptide + CHL): 0.5 and 0.5008
- FICI ([4]; peptide + MER): 0.52
- FICI ([4]; peptide + STR): 1.5
- FICI ([4]; peptide + TRI): 0.5
- MIC [5]: 1 µM
- MBIC (E. coli (ATCC 25922) [6]): 4 µM
- mouse deaths (E. coli KpC+1812446; 5 and 10 mg·Kg^−1 intraperitoneal): all the mice died on the first day
- in vivo toxicity (E. coli KpC+1812446; infected Balb/C mice, 5 and 10 mg·Kg^−1): did not decrease the toxicity of CM15
- MIC [7]: 8 µM
- MBIC (E. coli (KpC1812446) [8]): 4 µM
- MBIC [9]: 4 µM
- MIC (E. coli (ATCC25922)): 4 µM
- FICI ([10]; peptide + AmP): 2.0
- FICI ([10]; peptide + CHL): 2.0
- FICI ([10]; peptide + MER): 0.27
- FICI ([10]; peptide + STR): 0.78 and 0.75
- FICI ([10]; peptide + TRI): 1.5
- MIC [11]: 1 µM
- MIC (E. coli (KpC+ 1812446)): 2 µM
- MIC (MRSA (3730529)): 2 µM
- MIC [12]: >32 µM
- MIC (E. coli (KpC1812446) [13]): 8 µM
